Results from patent US7829572B2 (Pfizer Inc, priority 2006, dated 2010).

molecular target: T1, calcium receptor (CasR) (Homo sapiens, UniProt P41180); experiment: FLIPR Assay for Evaluating the Potency and Selectivity of Test Compounds; type: cell-based; settings: HEK 293 cells expressing CasR; 30 minutes pre-incubation; stimulation by 1.7 mM Ca2+; read 42 seconds after stimulation
T1 construct: expressed in transfected cells; host or cells: HEK 293
T1 sequence (P41180 20-1078): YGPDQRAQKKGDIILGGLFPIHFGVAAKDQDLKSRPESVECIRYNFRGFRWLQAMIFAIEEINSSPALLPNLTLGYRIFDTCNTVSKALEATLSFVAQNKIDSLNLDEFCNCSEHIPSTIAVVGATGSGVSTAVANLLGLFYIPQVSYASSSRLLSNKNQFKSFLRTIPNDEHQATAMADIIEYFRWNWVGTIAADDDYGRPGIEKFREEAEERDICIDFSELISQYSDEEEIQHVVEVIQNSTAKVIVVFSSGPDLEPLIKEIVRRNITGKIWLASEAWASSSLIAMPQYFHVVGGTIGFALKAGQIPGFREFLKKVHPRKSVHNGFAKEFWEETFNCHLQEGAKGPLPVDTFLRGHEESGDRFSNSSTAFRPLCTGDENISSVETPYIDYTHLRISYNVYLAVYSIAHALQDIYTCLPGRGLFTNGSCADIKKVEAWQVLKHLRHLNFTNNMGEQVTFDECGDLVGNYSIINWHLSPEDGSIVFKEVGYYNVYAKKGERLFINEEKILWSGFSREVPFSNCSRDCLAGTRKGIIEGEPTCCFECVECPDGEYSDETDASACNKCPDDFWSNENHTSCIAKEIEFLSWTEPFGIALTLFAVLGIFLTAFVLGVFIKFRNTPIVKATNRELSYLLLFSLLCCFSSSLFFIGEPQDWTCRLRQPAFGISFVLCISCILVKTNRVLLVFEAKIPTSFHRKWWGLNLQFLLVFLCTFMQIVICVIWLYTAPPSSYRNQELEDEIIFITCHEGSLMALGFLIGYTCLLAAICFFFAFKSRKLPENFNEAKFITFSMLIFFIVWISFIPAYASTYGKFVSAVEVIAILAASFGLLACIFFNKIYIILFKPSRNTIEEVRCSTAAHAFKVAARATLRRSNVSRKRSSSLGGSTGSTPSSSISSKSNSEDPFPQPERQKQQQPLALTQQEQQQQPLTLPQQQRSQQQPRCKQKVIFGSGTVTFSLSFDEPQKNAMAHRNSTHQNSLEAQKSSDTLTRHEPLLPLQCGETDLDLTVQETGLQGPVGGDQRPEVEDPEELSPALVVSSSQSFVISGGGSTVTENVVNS
Description: FLIPR Assay for Evaluating the Potency and Selectivity of Test Compounds
Human kidney cell (HEK 293) expressing the calcium receptor (CasR) are used to detect antagonists of the receptor using Fluorometric imaging plate reader (FLIPR, Molecular Devices, Sunnyvale Calif.). Receptor activation by extracellular calcium results in the release of calcium from intracellular stores into the cytosol. A fluorescent indicator (Fluo-4) is internalized by the cells from growth media and interacts with calcium released into the cytosol to provide a means of quantifying intracellular Ca^2+ levels and receptor agonism/antagonism. Fluorescence intensity is detected by the FLIPR CCD camera and traced as a function of time. Potential antagonists are identified by their ability to decrease this fluorescent response.
Prior to the addition of test compound cells are washed with a 10 mM HEPES buffer solution. The test compound, for example the compound of Example 1, is added at various doses (from 1 µM to 3 nM) and pre-incubated with cells for 30 minutes followed by stimulation of the CasR by the addition of 1.7 mM Ca^2+. IC50 values are based on the ability of the cells to inhibit the Ca^2+ induced increase in intracellular Ca^2+. Fluorescence signal is read 42 seconds after the stimulation of the CasR by the addition of 1.7 mM Ca^2+.
The following table provides FLIPR IC50 data for the specified Examples. The IC50s are reported as micromolar concentration with n being the number of times the particular compound was assayed.

IC50 | Structure (SMILES)
2990 nM | Cc1nccc2nc(-c3ccccc3O)n(CCc3ccccc3)c(=O)c12 [Example 26, 2-(2-Hydroxy-phenyl)-5-methyl-3-phenethyl-3H-pyrido[4,3-d]pyrimidi-4-one]
2260 nM | CN(C)c1ccc(-c2nccc3nc(-c4ccccc4O)n(CCc4ccccc4)c(=O)c23)cn1 [Example 27, 5-(6-Dimethylamino-pyridin-3-yl)-2-(2-hydroxy-phenyl)-3-phenethyl-3H-pyrido[4,3-d]pyrimidin-4-one]
4830 nM | Cc1cc(-c2nccc3nc(-c4ccccc4O)n(CCc4ccccc4)c(=O)c23)cnc1N(C)C [Example 28, 5-(6-Dimethylamino-5-methyl-pyridin-3-yl)-2-(2-hydroxy-phenyl)-3-phenethyl-3H-pyrido[4,3-d]pyrimidin-4-one]
490 nM | O=c1c2c(-c3ccc(N4CCCC4)nc3)nccc2nc(-c2ccccc2O)n1CCc1ccccc1 [Example 29, 5-(6-pyrrolidine-5-pyridin-3-yl)-2-(2-hydroxy-phenyl)-3-phenethyl-3H-pyrido[4,3-d]pyrimidin-4-one]
1170 nM | COc1nccc2nc(-c3ccccc3O)n(CCc3ccccc3)c(=O)c12 [Example 30, 2-(2-Hydroxy-phenyl)-5-methoxy-3-phenethyl-3H-pyrido[4,3-d]pyrimidin-4-one]
1930 nM | CC1(COc2nccc3nc(-c4ccccc4O)n(CCc4ccccc4)c(=O)c23)CC1 [Example 31, 2-(2-Hydroxy-phenyl)-5-(1-methyl-cyclopropylmethoxy)-3-phenethyl-3H-pyrido[4,3-d]pyrimidin-4-one]
570 nM | CCCOc1nccc2nc(-c3ccccc3O)n(CCc3ccccc3)c(=O)c12 [Example 32, 2-(2-Hydroxy-phenyl)-3-phenethyl-5-propoxy-3H-pyrido[4,3-d]pyrimidin-4-one]
520 nM | O=c1c2c(OC3CCC3)nccc2nc(-c2ccccc2O)n1CCc1ccccc1 [Example 33, 5-Cyclobutyloxy-2-(2-hydroxy-phenyl)-3-phenethyl-3H-pyrido[4,3-d]pyrimidin-4-one]
380 nM | CC(C)Oc1nccc2nc(-c3ccccc3O)n(CCc3ccccc3)c(=O)c12 [Example 35, 2-(2-Hydroxy-phenyl)-5-isopropoxy-3-phenethyl-3H-pyrido[4,3-d]pyrimidin-4-one]
600 nM | O=c1c2c(OCC(F)(F)F)nccc2nc(-c2ccccc2O)n1CCc1ccccc1 [Example 36, 2-(2-Hydroxy-phenyl)-3-phenethyl-5-(2,2,2-trifluoro-ethoxy)-3H-pyrido[4,3-d]pyrimidin-4-one]
8 nM | C[C@H](Cc1ccc(F)c(F)c1)n1c(-c2ncccc2O)nc2ccnc(C(F)(F)F)c2c1=O [Example 37a, (R)-3-(1-(3,4-difluorophenyl)propan-2-yl)-2-(3-hydroxypyridin-2-yl) 5-(trifluoromethyl)pyrido[4,3-d]pyrimidin-4(3H)-one]
2120 nM | C[C@@H](Cc1ccc(F)c(F)c1)n1c(-c2ncccc2O)nc2ccnc(C(F)(F)F)c2c1=O [Example 37b, (S)-3-(1-(3,4-difluorophenyl)propan-2-yl)-2-(3-hydroxypyridin-2-yl) 5-(trifluoromethyl)pyrido[4,3-d]pyrimidin-4(3H)-one]
110 nM | COc1ccccc1CCn1c(-c2ncccc2O)nc2ccnc(C(F)(F)F)c2c1=O [Example 39, 3-(2-methoxyphenethyl)-2-(3-hydroxypyridin-2-yl)-5-(trifluoromethyl)pyrido[4,3-d]pyrimidin-4(3H)-one]
460 nM | O=c1c2c(C(F)(F)F)nccc2nc(-c2ncccc2O)n1CCc1cccc(F)c1F [Example 40, 3-(2,3-difluorophenethyl)-2-(3-hydroxypyridin-2-yl)-5-(trifluoromethyl)pyrido[4,3-d]pyrimidin-4(3H)-one]
250 nM | COc1ccc(F)cc1CCn1c(-c2ncccc2O)nc2ccnc(C(F)(F)F)c2c1=O [Example 41, 3-(5-fluoro-2-methoxyphenethyl)-2-(3-hydroxypyridin-2-yl)-5-(trifluoromethyl)pyrido[4,3-d]pyrimidin-4(3H)-one]
1120 nM | COc1cccc(F)c1CCn1c(-c2ncccc2O)nc2ccnc(C(F)(F)F)c2c1=O [Example 42, 3-(2-fluoro-6-methoxyphenethyl)-2-(3-hydroxypyridin-2-yl)-5-(trifluoromethyl)pyrido[4,3-d]pyrimidin-4(3H)-one]
2440 nM | CCC(Cc1ccccc1F)n1c(-c2ncccc2O)nc2ccnc(C(F)(F)F)c2c1=O (stereo not drawn) [Example 44, 3-(1-(2-fluorophenyl)butan-2-yl)-2-(3-hydroxypyridin-2-yl)-5-(trifluoromethyl)pyrido[4,3-d]pyrimidin-4(3H)-one]
1870 nM | COc1c(F)cccc1CCn1c(-c2ncccc2O)nc2ccnc(C(F)(F)F)c2c1=O [Example 45, 3-(3-fluoro-2-methoxyphenethyl)-2-(3-hydroxypyridin-2-yl)-5-(trifluoromethyl)pyrido[4,3-d]pyrimidin-4(3H)-one]
290 nM | O=c1c2c(C(F)(F)F)nccc2nc(-c2ncccc2O)n1CCC1CCCC1 [Example 46, 3-(2-cyclopentylethyl)-2-(3-hydroxypyridin-2-yl)-5-(trifluoromethyl)pyrido[4,3-d]pyrimidin-4(3H)-one]
60 nM | O=c1c2c(C(F)(F)F)nccc2nc(-c2ncccc2O)n1CCC1CCCCC1 [Example 47, 3-(2-cyclohexylethyl)-2-(3-hydroxypyridin-2-yl)-5-(trifluoromethyl)pyrido[4,3-d]pyrimidin-4(3H)-one]
160 nM | C[C@H](CC1CCCCC1)n1c(-c2ncccc2O)nc2ccnc(C(F)(F)F)c2c1=O [Example 48a, (R)-3-(1-cyclohexylpropan-2-yl)-2-(3-hydroxypyridin-2-yl)-5-(trifluoromethyl)pyrido[4,3-d]pyrimidin-4(3H)-one]
1690 nM | C[C@@H](CC1CCCCC1)n1c(-c2ncccc2O)nc2ccnc(C(F)(F)F)c2c1=O [Example 48b, (S)-3-(1-cyclohexylpropan-2-yl)-2-(3-hydroxypyridin-2-yl)-5-(trifluoromethyl)pyrido[4,3-d]pyrimidin-4(3H)-one]
30 nM | C[C@H](Cc1ccccc1)n1c(-c2cccc(F)c2O)nc2ccnc(C(F)(F)F)c2c1=O [Example 50, (R)-2-(3-fluoro-2-hydroxyphenyl)-3-(1-phenylpropan-2-yl)-5-(trifluoromethyl)pyrido[4,3-d]pyrimidin-4(3H)-one]
110 nM | C[C@H](Cc1ccccc1)n1c(-c2ncc[nH]2)nc2ccnc(C(F)(F)F)c2c1=O [Example 51, (R)-2-(1H-imidazol-2-yl)-3-(1-phenylpropan-2-yl)-5-(trifluoromethyl)pyrido[4,3-d]pyrimidin-4(3H)-one]
230 nM | CC(=O)Nc1cccnc1-c1nc2ccnc(C(F)(F)F)c2c(=O)n1CCc1ccccc1F [Example 52, N-(2-(3-(2-fluorophenethyl)-4-oxo-5-(trifluoromethyl)-3,4-dihydropyrido[4,3-d]pyrimidin-2-yl)pyridin-3-yl)acetamide]
260 nM | C[C@H](Cc1ccccc1)n1c(-c2cscn2)nc2ccnc(C(F)(F)F)c2c1=O [Example 53, (R)-3-(1-phenylpropan-2-yl)-2-(thiazol-4-yl)-5-(trifluoromethyl)pyrido[4,3-d]pyrimidin-4(3H)-one]

Structure (SMILES) | IC50
CC(C)COc1nccc2nc(-c3ccccc3O)n(CCc3ccccc3)c(=O)c12 [Example 34, 2-(2-Hydroxy-phenyl)-5-isobutoxy-3-phenethyl-3H-pyrido[4,3-d]pyrimidin-4-one] | 1470 nM
